EP1457483A1, “Cationic lipids with serine backbone” (Ruhr-Universität Bochum, priority 2003, dated 2004)

Tested on: COS-7 cells
Assay: Automated lipofection screening: GFP-luciferase reporter gene transfer (luciferase activity per protein content)
Format: cell-based, African green monkey
Conditions: for Maximum transfection efficiency, MW (mean value), Helper lipid: DOPE / Maximum transfection efficiency, MW (mean value), Helper lipid: CHOL / Maximum transfection efficiency, MW (mean value), Helper lipid: without: pEGFPLuc plasmid, point is thousands separator; for Maximum transfection efficiency, MW (mean value), Helper lipid: DOPE: cationic/helper lipid 1:0.5 with DOPE; for Maximum transfection efficiency, MW (mean value), Helper lipid: DOPE / Maximum transfection efficiency, MW (mean value), Helper lipid: CHOL: at the LDR giving the maximum; for Maximum transfection efficiency, MW (mean value), Helper lipid: CHOL: cationic/helper lipid 1:0.5 with cholesterol; for Maximum transfection efficiency, MW (mean value), Helper lipid: without: no helper lipid, at the LDR (1:1-15:1) giving the maximum
Experimental: Screening the combinatorial lipid library for lipofection properties: Goal of this first step was to compare transfection efficiency of these structurally related cationic lipids with systematically modified hydrocarbon chain compositions for the development of suitable lipofection reagents and protocols and to study the relationship between structure and transfection efficiency of this new class of cationic lipids for gene transfer. All lipids (MS-1 to MS-50, table 1) were tested using a standard protocol: From each lipid, twenty four different lipoplexes were formed containing either no helper lipid or the helper lipids DOPE and CHOL at molar amounts (1:0.5), respectively, using eight different lipid:DNA-charge ratios (LDR) from 1:1 - 15:1, resulting in a lipofection profile for each lipid. The COS-7 cell-line was used for this lipofection study since COS-7 is easy to transfect and differences between the lipids are easy to identify.
Cell culture: SV40 transformed African green monkey kidney cell line COS-7 (ATCC CRL-1651) was routinely passaged in DMEM (GIBCO BRL, Karlsruhe, Germany), respectively, supplemented with 1% L-glutamin solution (100x), 1% Penicillin/Streptomycin solution (100x) (GIBCO BRL, Karlsruhe, Germany), and 10% FCS (BioWhittaker, Verviers, Belgium) at 37°C with 5% CO2 in humidified atmosphere. For the screening cells were maintained in 96-well culture plates (Greiner, Frickenhausen, Germany) in 100 µl DMEM, 10 % FCS, 1 % Penicillin-streptomycin in a humidified atmosphere at 37 °C/5 % CO2. 24 h prior to transfection, the cells were seeded into the microtiter plate at 10,000 cells per well to reach a confluency of 50 % at the time of transfection. Dendritic cells: Dendritic cells (DC) were derived from highly purified circulating CD14(+) monocytes: In a first step, peripheral blood mononuclear leukocytes (PBL) from healthy control persons were isolated by Ficoll-Paque (Pharmacia Biotech AB, Uppsala, Sweden) density centrifugation. The following immunomagnetic purification of the monocytes from PBL was performed using CD14 Microbeads and MiniMACS high gradient magnetic separation columns (Miltenyi Biotech, Bergisch Gladbach, Germany) according to manufacturer's instructions. Isolated monocytes (5 x 10^5/well) were cultured in RPMI supplemented with 10 % FCS, or serum-free Macrophage-SFM medium (GIBCO BRL, Karlsruhe, Germany) supplemented with human recombinant GM-CSF (0.05µg/ml) and IL-4 (0.025µg/ml) (PromoCell, Heidelberg, Germany) in 6-well plates. Aliquots of the cells were reanalyzed by FACS with anti-CD14 mAbs (Pharmingen, San Diego, CA). After 5-6 days non-adherent cells were collected and purity of DCs was determined by FACS analysis using a FACSort flow cytometer (Becton Dickinson, Mountain View, CA) and the CellQuest software for data processing as recently described (Jantscheff, P. et al., J. Immunol. Methods 163(1):91-7 (1993)).

## CCCCCCCCCCCCCCCC[N+](C)(CCCCCCCCCCCCCCCC)[C@@H](CO)C(=O)NCCCN [compound 33]
  Maximum transfection efficiency, MW (mean value), Helper lipid: DOPE: 201.586 RLU
  Maximum transfection efficiency, MW (mean value), Helper lipid: CHOL: 372.446 RLU
  Maximum transfection efficiency, MW (mean value), Helper lipid: without: 49.603 RLU

## CCCCCCCCCCCCCCCCCCN(CCCCCCCCCCCCCCCCCC)[C@@H](CO)C(=O)NCCN [compound 4]
  Maximum transfection efficiency, MW (mean value), Helper lipid: DOPE: 4.695 RLU
  Maximum transfection efficiency, MW (mean value), Helper lipid: CHOL: 131.981 RLU
  Maximum transfection efficiency, MW (mean value), Helper lipid: without: 2.827 RLU

## CCCCCCCC/C=C\CCCCCCCCN(CCCCCCCC/C=C\CCCCCCCC)[C@@H](CO)C(=O)NCCCCCCN [compound 25]
  Maximum transfection efficiency, MW (mean value), Helper lipid: DOPE: 44.451 RLU
  Maximum transfection efficiency, MW (mean value), Helper lipid: CHOL: 12.225 RLU
  Maximum transfection efficiency, MW (mean value), Helper lipid: without: 23.710 RLU

## CCCCCCCCCCCCCCCCCC[N+](C)(CCCCCCCCCCCCCCCCCC)[C@@H](CO)C(=O)NCCCCCN [compound 44]
  Maximum transfection efficiency, MW (mean value), Helper lipid: DOPE: 1.712 RLU
  Maximum transfection efficiency, MW (mean value), Helper lipid: CHOL: 28.104 RLU
  Maximum transfection efficiency, MW (mean value), Helper lipid: without: 3.542 RLU

## CCCCCCCCCCCCCCN(CCCCCCCCCCCCCC)[C@@H](CO)C(=O)NCCCN [compound 7]
  Maximum transfection efficiency, MW (mean value), Helper lipid: DOPE: 131.970 RLU
  Maximum transfection efficiency, MW (mean value), Helper lipid: CHOL: 464.342 RLU
  Maximum transfection efficiency, MW (mean value), Helper lipid: without: 217.062 RLU

## CCCCCCCCCCCCCCCC[N+](C)(CCCCCCCCCCCCCCCC)[C@@H](CO)C(=O)NCCN [MS-28]
Best combination against the other combinations
  times higher activity in only one of the helper lipid combinations: 2.5 - 11.5 times

## CCCCCCCCCCCCCCCCCCN(CCCCCCCCCCCCCCCCCC)[C@@H](CO)C(=O)NCCCCCN [compound 19]
  Maximum transfection efficiency, MW (mean value), Helper lipid: DOPE: 11.743 RLU
  Maximum transfection efficiency, MW (mean value), Helper lipid: CHOL: 45.026 RLU
  Maximum transfection efficiency, MW (mean value), Helper lipid: without: 1.118 RLU

## CCCCCCCC/C=C\CCCCCCCCN(CCCCCCCC/C=C\CCCCCCCC)[C@@H](CO)C(=O)NCCCCCN [compound 20]
  Maximum transfection efficiency, MW (mean value), Helper lipid: DOPE: 26.482 RLU
  Maximum transfection efficiency, MW (mean value), Helper lipid: CHOL: 67.308 RLU
  Maximum transfection efficiency, MW (mean value), Helper lipid: without: 31.897 RLU

## CCCCCCCCCCCC[N+](C)(CCCCCCCCCCCC)[C@@H](CO)C(=O)NCCN [compound 26]
  Maximum transfection efficiency, MW (mean value), Helper lipid: DOPE: 846 RLU
  Maximum transfection efficiency, MW (mean value), Helper lipid: CHOL: 16.919 RLU
  Maximum transfection efficiency, MW (mean value), Helper lipid: without: 3.196 RLU

## CCCCCCCCCCCC[N+](C)(CCCCCCCCCCCC)[C@@H](CO)C(=O)NCCCCCN [compound 41]
  Maximum transfection efficiency, MW (mean value), Helper lipid: DOPE: 1.535 RLU
  Maximum transfection efficiency, MW (mean value), Helper lipid: CHOL: 923 RLU
  Maximum transfection efficiency, MW (mean value), Helper lipid: without: 946 RLU

## CCCCCCCCCCCCCCCCCCN(CCCCCCCCCCCCCCCCCC)[C@@H](CO)C(=O)NCCCCN [compound 14]
  Maximum transfection efficiency, MW (mean value), Helper lipid: DOPE: 11.715 RLU
  Maximum transfection efficiency, MW (mean value), Helper lipid: CHOL: 42.270 RLU
  Maximum transfection efficiency, MW (mean value), Helper lipid: without: 1.956 RLU

## CCCCCCCCCCCCCCCC[N+](C)(CCCCCCCCCCCCCCCC)[C@@H](CO)C(=O)NCCCCCN [compound 43]
  Maximum transfection efficiency, MW (mean value), Helper lipid: DOPE: 169.621 RLU
  Maximum transfection efficiency, MW (mean value), Helper lipid: CHOL: 222.652 RLU
  Maximum transfection efficiency, MW (mean value), Helper lipid: without: 6.944 RLU

## CCCCCCCCCCCCCC[N+](C)(CCCCCCCCCCCCCC)[C@@H](CO)C(=O)NCCCN [compound 32]
  Maximum transfection efficiency, MW (mean value), Helper lipid: DOPE: 225.268 RLU
  Maximum transfection efficiency, MW (mean value), Helper lipid: CHOL: 447.443 RLU
  Maximum transfection efficiency, MW (mean value), Helper lipid: without: 2.075 RLU

## CCCCCCCCCCCC[N+](C)(CCCCCCCCCCCC)[C@@H](CO)C(=O)NCCCCN [compound 36]
  Maximum transfection efficiency, MW (mean value), Helper lipid: DOPE: 26.495 RLU
  Maximum transfection efficiency, MW (mean value), Helper lipid: CHOL: 3.829 RLU
  Maximum transfection efficiency, MW (mean value), Helper lipid: without: 2.064 RLU

## CCCCCCCCCCCCCCCCN(CCCCCCCCCCCCCCCC)[C@@H](CO)C(=O)NCCCN [compound 8]
  Maximum transfection efficiency, MW (mean value), Helper lipid: DOPE: 38.086 RLU
  Maximum transfection efficiency, MW (mean value), Helper lipid: CHOL: 22.428 RLU
  Maximum transfection efficiency, MW (mean value), Helper lipid: without: 6.244 RLU

## CCCCCCCCCCCCCCCCN(CCCCCCCCCCCCCCCC)[C@@H](CO)C(=O)NCCCCN [compound 13]
  Maximum transfection efficiency, MW (mean value), Helper lipid: DOPE: 30.635 RLU
  Maximum transfection efficiency, MW (mean value), Helper lipid: CHOL: 42.604 RLU
  Maximum transfection efficiency, MW (mean value), Helper lipid: without: 15.287 RLU

## CCCCCCCC/C=C\CCCCCCCC[N+](C)(CCCCCCCC/C=C\CCCCCCCC)[C@@H](CO)C(=O)NCCCN [compound 35]
  Maximum transfection efficiency, MW (mean value), Helper lipid: DOPE: 43.284 RLU
  Maximum transfection efficiency, MW (mean value), Helper lipid: CHOL: 56.949 RLU
  Maximum transfection efficiency, MW (mean value), Helper lipid: without: 34.736 RLU

## CCCCCCCCCCCC[N+](C)(CCCCCCCCCCCC)[C@@H](CO)C(=O)NCCCCCCN [compound 46]
  Maximum transfection efficiency, MW (mean value), Helper lipid: DOPE: 560 RLU
  Maximum transfection efficiency, MW (mean value), Helper lipid: CHOL: 766 RLU
  Maximum transfection efficiency, MW (mean value), Helper lipid: without: 956 RLU

## CCCCCCCCCCCCCCN(CCCCCCCCCCCCCC)[C@@H](CO)C(=O)NCCN [compound 2]
  Maximum transfection efficiency, MW (mean value), Helper lipid: DOPE: 73.117 RLU
  Maximum transfection efficiency, MW (mean value), Helper lipid: CHOL: 297.074 RLU
  Maximum transfection efficiency, MW (mean value), Helper lipid: without: 362.300 RLU

## CCCCCCCCCCCCCCN(CCCCCCCCCCCCCC)[C@@H](CO)C(=O)NCCCCCCN [compound 22]
  Maximum transfection efficiency, MW (mean value), Helper lipid: DOPE: 164.165 RLU
  Maximum transfection efficiency, MW (mean value), Helper lipid: CHOL: 241.264 RLU
  Maximum transfection efficiency, MW (mean value), Helper lipid: without: 237.631 RLU

## CCCCCCCCCCCCCC[N+](C)(CCCCCCCCCCCCCC)[C@@H](CO)C(=O)NCCCCCN [compound 42]
  Maximum transfection efficiency, MW (mean value), Helper lipid: DOPE: 72.349 RLU
  Maximum transfection efficiency, MW (mean value), Helper lipid: CHOL: 181.719 RLU
  Maximum transfection efficiency, MW (mean value), Helper lipid: without: 832 RLU

## CCCCCCCC/C=C\CCCCCCCCN(CCCCCCCC/C=C\CCCCCCCC)[C@@H](CO)C(=O)NCCCN [compound 10]
  Maximum transfection efficiency, MW (mean value), Helper lipid: DOPE: 92.769 RLU
  Maximum transfection efficiency, MW (mean value), Helper lipid: CHOL: 28.835 RLU
  Maximum transfection efficiency, MW (mean value), Helper lipid: without: 13.461 RLU

## CCCCCCCCCCCCCCCCCC[N+](C)(CCCCCCCCCCCCCCCCCC)[C@@H](CO)C(=O)NCCCN [compound 34]
  Maximum transfection efficiency, MW (mean value), Helper lipid: DOPE: 5.085 RLU
  Maximum transfection efficiency, MW (mean value), Helper lipid: CHOL: 42.068 RLU
  Maximum transfection efficiency, MW (mean value), Helper lipid: without: 21.056 RLU

## CCCCCCCCCCCCCCN(CCCCCCCCCCCCCC)[C@@H](CO)C(=O)NCCCCCN [compound 17]
  Maximum transfection efficiency, MW (mean value), Helper lipid: DOPE: 453.572 RLU
  Maximum transfection efficiency, MW (mean value), Helper lipid: CHOL: 237.556 RLU
  Maximum transfection efficiency, MW (mean value), Helper lipid: without: 249.143 RLU

## CCCCCCCCCCCCCC[N+](C)(CCCCCCCCCCCCCC)[C@@H](CO)C(=O)NCCCCN [compound 37]
  Maximum transfection efficiency, MW (mean value), Helper lipid: DOPE: 63.765 RLU
  Maximum transfection efficiency, MW (mean value), Helper lipid: CHOL: 148.560 RLU
  Maximum transfection efficiency, MW (mean value), Helper lipid: without: 1.972 RLU

## CCCCCCCCCCCCCCCC[N+](C)(CCCCCCCCCCCCCCCC)[C@@H](CO)C(=O)NCCN [compound 28]
  Maximum transfection efficiency, MW (mean value), Helper lipid: DOPE: 190.444 RLU
  Maximum transfection efficiency, MW (mean value), Helper lipid: CHOL: 461.747 RLU
  Maximum transfection efficiency, MW (mean value), Helper lipid: without: 171.272 RLU

## CCCCCCCCCCCCCCCCCC[N+](C)(CCCCCCCCCCCCCCCCCC)[C@@H](CO)C(=O)NCCCCCCN [compound 49]
  Maximum transfection efficiency, MW (mean value), Helper lipid: DOPE: 7.563 RLU
  Maximum transfection efficiency, MW (mean value), Helper lipid: CHOL: 10.245 RLU
  Maximum transfection efficiency, MW (mean value), Helper lipid: without: 2.177 RLU

## CCCCCCCCCCCCCC[N+](C)(CCCCCCCCCCCCCC)[C@@H](CO)C(=O)NCCCCCCN [compound 47]
  Maximum transfection efficiency, MW (mean value), Helper lipid: DOPE: 50.115 RLU
  Maximum transfection efficiency, MW (mean value), Helper lipid: CHOL: 56.974 RLU
  Maximum transfection efficiency, MW (mean value), Helper lipid: without: 533 RLU
